Laboratory results: publication PMC11311241, “In Situ Forming, Enzyme-Responsive Peptoid-Peptide Hydrogels: An Advanced Long-Acting Injectable Drug Delivery System” (Journal of the American Chemical Society, 2024)
Where two headings read alike, the source gives them in different places.

Experiments:
[1] = rats
Description: Female Sprague–Dawley rats (n = 18, aged 8–10 weeks, mean weight = 220 g) were purchased from Envigo and acclimatized for 1 week prior to experimentation.
This treatment was then administered intravenously to the tail vein (8.46 mg kg−1).15 The
extraction from blood plasma samples was possible. The peptoid-D-peptide experimental
injectable solution was formed by dissolving lyophilized UV-sterilized
mL) were obtained from the tail vein of each rat and collected in 1.5 mL preheparinized
group. Centrifugation (13,400 rpm, 10 min) was utilized to separate blood plasma
be analyzed via analytical RP-HPLC and a validated calibration curve (Figure S35) as outlined
The pharmacokinetic parameters were calculated using PKSolver 2.0.16, 17 The
parameters studied were the drug half-life (t1/2), the time to peak drug concentration (Tmax), the
maximum plasma concentration (Cmax), the area under the plasma concentration – time curve
from time zero to the last quantifiable concentration on day 35 (AUC0−35), the observed area
under the plasma concentration – time curve extrapolated from time zero to infinity (AUC0-
∞,obs) and the mean residence time (MRT) of the drug extrapolated from time zero to infinity.

[2] = test system: HIV; conditions: cited from earlier work
[3] = test system: alkaline phosphatase; conditions: for Strain at which the weaker network breaks / Strain at which the stronger second network or entanglement breaks: strain sweep, 5% w/v gels; for Strain at which the weaker network breaks: first deformation; for Strain at which the stronger second network or entanglement breaks: second deformation; for Strain at complete deformation (G′ and G″ intersect): strain sweep 0.1–1000%, 2.5 rad s-1, 5% w/v gels
Source text: Our drug delivery system is partly defined by drug diffusion from the hydrogel matrix, and hydrolysis of the peptoid-peptide-drug chemical linker. Reproducing supramolecular gels’ mechanical properties is difficult, especially for peptide-based systems. Experimental parameters and formulation factors are particularly important, as highlighted recently by the Adams and Draper groups.[77],[78] Subtle experimental influences e.g. handling and temperature, can lead to issues with reproducibility. […] Loss (G″) and storage (G′) moduli, critical strain (%) and oscillatory time sweeps were performed to determine the rheological changes with time and the potential for rapid in situ hydrogel depot formation upon exposure to 3.98 U mL^–1 phosphatase enzyme. […] Hydrogel formation occurs when the storage modulus (G′) is at least 1 order of magnitude greater than the loss modulus (G″).[79]
Rapid gelation is important for in situ formation of drug delivery depots to reduce the diffusion of drug(s) from the depot and potential burst release. Quick gelation after injectable administration is also important for our system in order to reduce the availability of the peptoid-peptide ester linkage with the drug to water within the subcutaneous space, providing a diffusion barrier to rapid drug cleavage by hydrolysis.[84] There are several ways in which time for gelation can be defined: a) the time at which the storage modulus (G′) and loss modulus (G″) cross indicating greater solid-like behavior; b) the time point at which G′ is greater by 1 order of magnitude than G″; and c) the time at which G′ and G″ begin to stabilize/plateau. […]
(i) peptoid-peptide sequence dissolved in PBS prior to addition of 2 U alkaline phosphatase, (ii) after 2 U alkaline phosphatase addition and formulation as outlined in Table S2.
S.4. Oscillatory rheology
Anton Paar MCR302 rheometer (Anton Paar, St Albans, UK). Gels were formulated at a 2 mL volume in 7 mL Sterilin ™ vials as previously described .8 A vane and cup geometry was used to perform both frequency and strain sweeps. Frequency sweeps were performed at 37 °C from 1 – 100 rad s-1 at a strain of 0.5%. […] sweeps were perform ed at 37°C, 2.5 rad s-1 and a strain of 0.1 – 1000%. Gel strength was measured by determining the strain at which the gels […]
Table S3. Gelation times for peptoid-L-peptide and peptoid-D-peptide hydrogels upon addition of alkaline phosphatase enzyme derived from data in Figures S25 – S27 S40 and […]
* Mean value of storage modulus (G′) and loss modulus (G″) for each peptoid-peptide derived

[4] = In vitro zidovudine release from hydrogels in PBS, with KinetDS modelling; assay type: physicochemical
Source text: This is typical of physically encapsulated drug release systems, which are prone to drug leakage and a high burst release.[8],[95] The release profile was monitored over the entire 28 day profile. […] Physically encapsulated systems are more applicable to acute drug delivery applications where rapid treatment, such as pain relief, is required at a high dose for a shorter time period. […] Drugs are released from the hydrogel systems in an unmodified form via simple hydrolysis of the drug-ester linkage under physiological conditions. In practice, diffusion through the peptoid-peptide hydrogel matrix and into the surrounding fluid would enable uptake into the systemic circulation. […] There appears to be a link between gelation times for peptoid-L-peptide and peptoid-D-peptide hydrogels, defined by rheological time sweeps (Figures 2f, S25c–f and Table S3). […] It is well established that rapid gel formation minimizes burst release of drug and this is especially relevant to our system,[96] whereby the presence of a gel should act as a diffusional barrier, reducing the ability of water to hydrolyze the covalent ester linkage between peptoid-peptide and drug.
KinetDS software was utilized to further understand the drug release kinetics of these novel peptoid-peptide hydrogel platforms. Various kinetic models, including zero-order, first-order, Korsmeyer–Peppas, Hixson–Crowell, Higuchi and Weibull models were applied to determine the mechanism of drug release. […] For injectable hydrogel-forming depots quantified by cumulative release, zero-order, first-order and Korsmeyer–Peppas models tend to be the most relevant for establishing the mechanism of drug release kinetics. The Higuchi model applies to drug release driven mainly by diffusion only and it is accepted that this model should not be used when hydrogel swelling may be a factor in release.[97]−[99] […] The Weibull model is associated more with nanoparticles and heterogeneous formulations; however its application in model injectable hydrogels is increasing.[101],[102] […] This indicates super case II transport (n > 0.85), whereby the drug is mainly released through the erosion of the polymer matrix and/or possibly hydrolysis of the ester-drug linkage where present.[99],[103]

[5] = test system: NCTC 929 cells; assay type: cell-based, murine; conditions: 24 h, fluorescence microscopy
Description: (§1) Peptoid-peptide cell cytotoxicity studies were performed using the International Standard (ISO) murine fibroblast subcutaneous connective tissue NCTC 929 (ATCC CCL 1) cell line.[108],[116] Cell cytotoxicity was assessed using three separate assays, outlined fully in Section S.7 of the Supporting Information: (i) 3-(4,5-dimethylthiazol-2-yl)-5-(3-carboxymethoxyphenyl)-2-(4-sulfophenyl)-2H-tetrazolium (MTS) colorimetric assay, (ii) lactate dehydrogenase (LDH) release and (iii) a Live/Dead assay. The cytotoxicity of each peptoid-peptide was tested after 6 (LDH, MTS), 24 (Live/Dead, MTS) and 72 h (MTS) of exposure. […]
for a further 5 min. A stop reagent (50 μL) was then added, and the UV absorbance was measured at 490 nm using a Tecan Sunrise plate reader. […]
in absorbance: i) a high LDH release control representing 100% toxicity was generated by adding 5 μL of lysis solution to non-treated cells 15 min before the addition of the test reagent; ii) each peptoid-peptide was solubilized in media at the highest tested concentration (500 μM); iii) the LDH standard was added to the media; and iv) an equal volume of the highest solubilized peptoid-peptide concentration (500 μM) and the LDH standard were added to the media. The percentage of cell cytotoxicity was calculated using Equation 3 below and is reported once again as the mean of nine measurements (three replicates, repeated three times). […]

[6] = test system: NCTC 929 cells; assay: MTS cell viability / metabolic activity assay; assay type: cell-based, murine; conditions: fully solubilized, 500 μM, 6, 24 and 72 h, vs media-only control, nine replicates
Description: as §1
The MTS-based CellTiter 96 AQueous One Solution Cell Proliferation Assay (Promega, Southampton, UK) was used to analyze the metabolic activity of treated cells.3 UV absorption was measured at 490 nm using a Tecan Sunrise plate reader (Tecan UK Ltd, Reading, UK) and cell viability/percentage metabolic activity was calculated as outlined in Equation 2 below. […]
LDH release was quantified as a measure of cytotoxicity using a Cytotoxicity Detection KitPLUS assay (Sigma-Aldrich, Dorset, UK) as previously described.13 The cells were incubated, with each solubilized peptoid-peptide (20 – 500 μM) in combination with NCTC 929 cells for 6 hours, after which 100 μL of test reagent was added to each well, and incubated

[7] = plasma zidovudine, IV 8.46 mg kg−1, mean ± SEM, n = 6
[8] = KinetDS fit of 28 day release profile
[9] = 5% w/v hydrogel, PBS pH 7.4, 37 °C, n = 3
[10] = 5% w/v, 1–100 rad s-1, strain 0.5%, 37 °C, mean

For `Cc1cn([C@H]2C[C@H](N=[N+]=[N-])[C@@H](CO)O2)c(=O)[nH]c1=O` [zidovudine], the “MRT0-∞,obs” value [1, 7] was “approximately 1.58 hour”, the Tmax [1, 7] was 0.58 ± 0.08 h and the “MRT0-∞,obs” value ([1]; plasma zidovudine, IV 8.46 mg kg−1, mean ± SEM, n = 6, listed as Zidovudine) was 1.58 ± 0.50 h. For the same compound, the “Time to undetectable plasma levels” value ([1]; IV control) was at most 6 h, the “Plasma peak zidovudine concentration” value ([1]; IV control, mean plasma profile (Figure 5a), n = 6) was 7,500 ng mL–1 and the IC90 range ([2]; 90% maximal inhibitory concentration) was 30–130 ng mL–1. The “four times IC90 value (pharmacokinetic benchmark for HIV protection)” value [2] was 120 ng mL–1.
For “(NPhe)4GGGGKY-OH [dephosphorylated peptoid-L-peptide hydrogel]”, the “Strain at which the weaker network breaks” value [3] was about 5.78%, the “Strain at which the stronger second network or entanglement breaks” value [3] was about 36.5% and the “Weibull model shape factor β” value [4, 8] was 0.9550.
With “(NPhe)4GGGGky(p)-OH [tetrabenzylamine-tetraglycine-D-lysine-O-phospho-D-tyrosine]” the “G′ from frequency sweeps” value ([3]; 5% w/v) was about 2030 Pa, the “Strain at complete deformation (G′ and G″ intersect)” value ([3]; 37 °C) was about 192% and the “Strain at which the weaker network breaks” value [3] was about 0.527%. The “Strain at which the stronger second network or entanglement breaks” value [3] was about 4.81% and the “Live/Dead staining result at 500 μM” value [5] was “demonstrated cytotoxicity”.
With “(NPhe)4GGGGK(AZT)Y-OH [peptoid-L-peptide hydrogel, chemically conjugated drug]” the “Strain at complete deformation (G′ and G″ intersect)” value ([3]; 37 °C) was about 44%, the “Strain at which the weaker network breaks” value [3] was about 4% and the “Strain at which the stronger second network or entanglement breaks” value [3] was about 17.5%. The “Cumulative zidovudine released in the first 72 h” value ([4]; 5% w/v hydrogel, PBS pH 7.4, 37 °C, % of loaded drug, n = 3) was 14.2%, the “Cumulative zidovudine released at the final time point (28 days)” value [4, 9] was 15.9% and the “Cumulative zidovudine released within the first 30 min” value [4, 9] was 11.04%. The “Weibull model shape factor β” value [4, 8] was 0.9550±0.11, the “Weibull model α” value [4, 8] was 5.362±0.75 and the “Reduction of drug release in the first 72 h versus physical encapsulation” value ([4]; PBS pH 7.4, 37 °C, chemically conjugated vs physically encapsulated zidovudine) was about 88%.
With “tetrabenzylamine-tetraglycine-L-lysine-O-phospho-L-tyrosine [(NPhe)4GGGGKY(p)-OH]” the “Live/Dead staining result at 500 μM” value [5] was “no observable cytotoxic effects on live cells”.
For (NPhe)4GGGGK(AZT)Y(p)-OH, the “Effect on cell metabolic activity (MTS) at 500 μM” value [6] was “cell toxicity was once again demonstrated only after 72 h”, the “Mean loss modulus (G″) from frequency sweeps” value [3, 10] was 112.18 and the “Mean storage modulus (G′) from frequency sweeps” value [3, 10] was 856.11. The “Tan δ = G″/G′ from freq sweeps” value ([3]; 5% w/v, frequency sweeps 1–100 rad s-1, strain 0.5%, 37 °C, from mean moduli) was 0.131, the “Gelation time: G′ and G″ cross” value ([3]; 5% w/v, time sweep after addition of 3.98 U mL-1 alkaline phosphatase, n = 3) was at most 1 min and the “Time for G′ and G″ to stabilize” value ([3]; 5% w/v, time sweep after addition of alkaline phosphatase) was 135 min.
